# Earlier results as cited in patent publication US20030153514A1, “Remedies for cancer” (priority 2000, published 2003).
# System: NKT cells (Vα24Vβ11)
# Conditions: cancer-bearing mice
smiles,measurement,value
CCCCCCCCCCCCCCCCCCCCCCCCCC(=O)N[C@@H](CO[C@H]1O[C@H](CO)[C@H](O)[C@H](O)[C@H]1O)[C@H](O)[C@H](O)CCCCCCCCCCCCCC [α-galactosylceramide],NKT cells,activated
same,disappearance of cancer,not observed
same,metastasis,suppressed
